Measurements as given in ChEMBL document CHEMBL1201862, “PubChem BioAssay data set” (2004).
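Assay format: 96-well plates, 48-hour exposure. The concentration for 50% growth inhibition is given as GI50.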 Activity calls are given as the source filed them. Rule as the data show it: active = GI50 up to about 1.1 µM and inactive = higher.

How the values were obtained:
Assay in all cases: NCI anticancer screen, dose series, 48 h
DLD-1 = test system: DLD-1
DMS-273 = test system: DMS-273
HOP-18 = test system: HOP-18
LXFL 529 = test system: LXFL 529
M19-MEL = test system: M19-MEL
SNB-78 = test system: SNB-78
KM-20L2 = test system: KM-20L2
RXF 631 = test system: RXF 631
XF498 = test system: XF498

Measured: GI50

C=C(Br)C(C)(Cl)CCC(Br)C(C)(C)Br (stereo not given)
inactive: DLD-1 91.8 µM | DMS-273 39.4 µM | HOP-18 > 100 µM | LXFL 529 83 µM | M19-MEL 34 µM | SNB-78 > 100 µM

CC(=O)O/N=C/c1ncccc1CO
inactive: DLD-1 > 100 µM | DMS-273 > 100 µM | HOP-18 > 100 µM | KM-20L2 > 100 µM | LXFL 529 > 100 µM | M19-MEL > 100 µM | RXF 631 > 100 µM | XF498 > 100 µM

CCOC(=N)/C(=C1\OC(=N)C(c2ccc(Cl)cc2)=C1O)c1ccc(Cl)cc1
inactive: DLD-1 15.2 µM | DMS-273 14.7 µM | HOP-18 19 µM | KM-20L2 18.5 µM | LXFL 529 14.7 µM | M19-MEL 16.9 µM | RXF 631 25.2 µM | SNB-78 25.6 µM | XF498 11.4 µM

CC12O[C@H](c3ccccc3)[C@H](c3ccccc3)N1C(=O)C1(C(=O)OCc3ccccc3)CC12 (stereo not given in full)
inactive: DLD-1 88.1 µM | DMS-273 80 µM | KM-20L2 25.1 µM | LXFL 529 26.6 µM | M19-MEL > 100 µM | RXF 631 > 100 µM | XF498 78.9 µM

N/N=C1\c2ccccc2C2/C(=N\N)c3ccccc3C12 (stereo not given)
inactive: DLD-1 > 100 µM | DMS-273 > 100 µM | HOP-18 57.4 µM | KM-20L2 > 100 µM | LXFL 529 > 100 µM | M19-MEL > 100 µM

O/N=C1/CCC/C1=C\c1ccccc1
inactive: DLD-1 > 100 µM | DMS-273 > 100 µM | HOP-18 > 100 µM | KM-20L2 > 100 µM | LXFL 529 > 100 µM | M19-MEL > 10 µM | SNB-78 > 100 µM | XF498 29.9 µM

Cc1ccc(S(=O)(=O)OCC23CCC(C2)C2CC23)cc1 (stereo not given)
inactive: DLD-1 > 100 µM | DMS-273 > 100 µM | HOP-18 > 100 µM | KM-20L2 > 100 µM | LXFL 529 > 100 µM | M19-MEL > 100 µM

Cc1ccc(NC(=O)CCc2nc(N)nc(N)c2-c2ccccc2)cc1C
inactive: DLD-1 > 100 µM | DMS-273 > 100 µM | HOP-18 > 100 µM | KM-20L2 > 100 µM | LXFL 529 > 100 µM | M19-MEL > 100 µM | RXF 631 > 100 µM | SNB-78 > 100 µM | XF498 > 100 µM

O=C1[C@H]2ON(c3ccccc3)C(c3ccccc3Cl)[C@H]2C(=O)N1c1ccc(Cc2ccc(N3C(=O)[C@@H]4ON(c5ccccc5)C(c5ccccc5Cl)[C@@H]4C3=O)cc2)cc1 (stereo not given in full)
inactive: DLD-1 > 100 µM | DMS-273 > 100 µM | HOP-18 > 100 µM | KM-20L2 > 100 µM | LXFL 529 > 100 µM | M19-MEL > 100 µM | SNB-78 > 100 µM

COc1cc2nc(NCCCCCNC(=O)c3ccco3)nc(N)c2cc1OC
inactive: DMS-273 49.9 µM | HOP-18 > 100 µM | KM-20L2 32.4 µM | M19-MEL 23 µM | RXF 631 26.1 µM | SNB-78 28.2 µM

O=C(C[n+]1ccccc1)N/N=C(/CCC(=O)N(Cc1ccccc1)Cc1ccccc1)CC(=O)c1ccccc1
inactive: DLD-1 > 100 µM | DMS-273 > 100 µM | HOP-18 > 100 µM | KM-20L2 > 100 µM | LXFL 529 > 100 µM | M19-MEL > 100 µM | RXF 631 > 100 µM | SNB-78 > 100 µM

O=[N+]([O-])c1ccccc1/C=N/C12CC3CC(CC(C3)C1)C2
inactive: DLD-1 36.4 µM | DMS-273 34.6 µM | HOP-18 > 100 µM | KM-20L2 51.1 µM | LXFL 529 45.5 µM | M19-MEL > 100 µM | RXF 631 > 100 µM | SNB-78 47.1 µM | XF498 > 100 µM

CN(C)C(=O)c1ccc([N+](=O)[O-])cc1
inactive: DLD-1 > 100 µM | DMS-273 > 100 µM | KM-20L2 > 100 µM | LXFL 529 > 100 µM | M19-MEL > 100 µM | SNB-78 > 100 µM

CC1(C)OC2CC3COC(=O)C3CC2O1 (stereo not given)
inactive: DLD-1 > 100 µM | DMS-273 > 100 µM | HOP-18 > 100 µM | KM-20L2 > 100 µM | LXFL 529 > 100 µM | M19-MEL > 100 µM | RXF 631 > 100 µM | SNB-78 > 100 µM

CCOc1ccccc1/N=N/c1ccc2oc(=O)c(C(=O)Nc3cccc(C)c3)cc2c1
inactive: DLD-1 24.2 µM | DMS-273 34.3 µM | KM-20L2 43.5 µM | LXFL 529 26.1 µM | M19-MEL 27 µM | RXF 631 34.5 µM | SNB-78 24.5 µM | XF498 34.6 µM

COC(=O)CC[C@]12C[C@]13CC[C@]1(C)C4C(C)C[C@]5(CC(C)C(=O)O5)OC4CC1(C)C3CCC2C(C)(C)O (stereo not given in full)
inactive: DLD-1 51.8 µM | DMS-273 32.7 µM | HOP-18 > 100 µM | KM-20L2 > 100 µM | LXFL 529 55.2 µM | M19-MEL 48 µM | SNB-78 89.9 µM | XF498 58.6 µM

Nc1ncnc2c1ncn2[C@]1(CO)C=C(CO)C(O)C1O (stereo not given in full)
inactive: DLD-1 > 100 µM | DMS-273 > 100 µM | HOP-18 > 100 µM | KM-20L2 > 100 µM | LXFL 529 > 100 µM | RXF 631 > 100 µM | SNB-78 > 100 µM | XF498 > 100 µM

Cc1cc(O)cc2oc(=O)c3c(O)cc(O)cc3c12 [ALTERNARIOL]
inactive: DLD-1 30.7 µM | DMS-273 23 µM | HOP-18 26.8 µM | KM-20L2 27.7 µM | LXFL 529 59.6 µM | M19-MEL 58.6 µM | SNB-78 34.5 µM | XF498 27.1 µM
